In the CheMixHub viscosity set:

Assay: xn = mol fraction of the nth substance listed

COc1ccccc1 + CCCCO
viscosity [mPa·s]
Conditions | 303 K | 303.15 K | 313 K | 313.15 K | 323 K | 323.15 K
100 kPa, x1 = 0.121 | 1.831 | – | 1.255 | – | 1.031 | –
100 kPa, x1 = 0.236 | 1.534 | – | 1.069 | – | 0.8722 | –
100 kPa, x1 = 0.346 | 1.297 | – | 0.9238 | – | 0.7426 | –
100 kPa, x1 = 0.452 | 1.128 | – | 0.8353 | – | 0.6858 | –
100 kPa, x1 = 0.553 | 1.049 | – | 0.7844 | – | 0.6551 | –
100 kPa, x1 = 0.65 | 0.9984 | – | 0.7302 | – | 0.6131 | –
100 kPa, x1 = 0.742 | 0.9819 | – | 0.7012 | – | 0.5948 | –
100 kPa, x1 = 0.832 | 0.9796 | – | 0.6884 | – | 0.5673 | –
100 kPa, x1 = 0.918 | 0.9769 | – | 0.6724 | – | 0.5517 | –
101.33 kPa, x1 = 0.1002 | – | 1.874 | – | 1.48 | – | 1.165
101.33 kPa, x1 = 0.2 | – | 1.523 | – | 1.254 | – | 0.989
101.33 kPa, x1 = 0.3001 | – | 1.359 | – | 1.075 | – | 0.899
101.33 kPa, x1 = 0.3998 | – | 1.197 | – | 0.975 | – | 0.806
101.33 kPa, x1 = 0.5 | – | 1.079 | – | 0.889 | – | 0.75
101.33 kPa, x1 = 0.6002 | – | 1.001 | – | 0.851 | – | 0.734
101.33 kPa, x1 = 0.7 | – | 0.952 | – | 0.805 | – | 0.721
101.33 kPa, x1 = 0.8003 | – | 0.929 | – | 0.788 | – | 0.709
101.33 kPa, x1 = 0.9 | – | 0.914 | – | 0.772 | – | 0.698

CC(C)=O + CN(C)C=O
298.15 K, 101 kPa
Conditions | viscosity [mPa·s]
x2 = 0.0367 | 0.32
x2 = 0.09776 | 0.343
x2 = 0.136 | 0.369
x2 = 0.2182 | 0.378
x2 = 0.394 | 0.457
x2 = 0.4912 | 0.499
x2 = 0.6429 | 0.565
x2 = 0.8008 | 0.646

COc1ccccc1 + CCCCCCCO
viscosity [mPa·s]
Conditions | 303 K | 303.15 K | 313 K | 313.15 K | 323 K | 323.15 K
100 kPa, x1 = 0.126 | 3.393 | – | 2.351 | – | 1.972 | –
100 kPa, x1 = 0.245 | 2.343 | – | 1.746 | – | 1.46 | –
100 kPa, x1 = 0.357 | 1.759 | – | 1.349 | – | 1.173 | –
100 kPa, x1 = 0.464 | 1.364 | – | 1.124 | – | 0.9642 | –
100 kPa, x1 = 0.565 | 1.172 | – | 0.9672 | – | 0.849 | –
100 kPa, x1 = 0.66 | 1.068 | – | 0.8719 | – | 0.7334 | –
100 kPa, x1 = 0.752 | 0.9884 | – | 0.8171 | – | 0.684 | –
100 kPa, x1 = 0.838 | 0.9459 | – | 0.7783 | – | 0.6326 | –
100 kPa, x1 = 0.921 | 0.9418 | – | 0.7546 | – | 0.6041 | –
101.33 kPa, x1 = 0.1002 | – | 3.922 | – | 2.94 | – | 2.245
101.33 kPa, x1 = 0.1999 | – | 3.023 | – | 2.359 | – | 1.812
101.33 kPa, x1 = 0.3 | – | 2.457 | – | 1.932 | – | 1.554
101.33 kPa, x1 = 0.4003 | – | 1.996 | – | 1.611 | – | 1.292
101.33 kPa, x1 = 0.5 | – | 1.701 | – | 1.373 | – | 1.161
101.33 kPa, x1 = 0.6 | – | 1.448 | – | 1.212 | – | 0.998
101.33 kPa, x1 = 0.7002 | – | 1.213 | – | 1.01 | – | 0.864
101.33 kPa, x1 = 0.8002 | – | 1.072 | – | 0.892 | – | 0.768
101.33 kPa, x1 = 0.9001 | – | 0.969 | – | 0.824 | – | 0.714
